In article PMC8483441 (Journal of Medicinal Chemistry, 2021):
Values after ≈ are worked out from the molar mass of the structure shown. “Also recorded” adds a separate entry of the source. Read-outs that look alike come from different tables or passages of the source. Square brackets hold non-standard residues; d marks the D form. Peptide text beside a SMILES is read from it. hArg = N=C(N)NCCCC[C@H](N)C(=O)O; Dab = NCC[C@H](N)C(=O)O

Tests used:
50% (v/v) Human Serum = details: up to 480 min
E. coli [1] = experiment: Antimicrobial resistance, recurrent incubation; type: cell-based; details: for MIC: Escherichia coli
Protocol: To test whether recurrent incubation of bacteria with peptides could induce resistance, E. coli (10^7 cfu/mL) were incubated with peptides (1 μM) or ciprofloxacin (1 μg/mL) for 1 h. After incubation, cells were centrifuged, washed, and grown overnight in Mueller-Hinton medium. The cycle of incubation and growth was repeated in a cyclic manner for 7 days, and each day, cultures were tested for MIC to detect resistance.

A. baumannii = type: cell-based, Acinetobacter baumannii; details: 24 h
Protocol: (§1) Human serum was purchased from Sigma (St Louis, USA).
(§2) Incubations were kept at 37 °C for 24 h. Results are the average of three independent studies.

Pseudomonas sp. [2] = experiment: MIC, broth microdilution; type: cell-based; details: Pseudomonas sp. ATCC 15915; Mueller-Hinton medium, 5 × 10^5 CFU/mL, 37 °C, 24 h; average of three independent studies
Protocol: as §1, §2

S. enterica = type: cell-based, Salmonella enterica; details: 24 h
Protocol: as §1, §2

S. flexneri = details: 24 h
Text: Purified horse red blood cells were acquired from Thermo Fisher Scientific (Hampshire, England). Human serum was purchased from Sigma (St Louis, USA). E. coli was obtained from the Coli Genetic Stock Center (BW25113). S. flexneri (ATCC 29903), A. baumannii (ATCC 15308), Pseudomonas sp. (ATCC 15915), and S. enterica (ATCC 14028) were obtained from the CECT (Valencia, Spain). Clinical strains were supplied by the Vall d’Hebron Hospital (Barcelona, Spain). MRC5 fibroblasts were obtained from the Cytometry and Cell Culture Facility (SCAC, UAB) and originally purchased from ATCC.
The antibiotic activity was defined by the minimum peptide concentration where the microorganism is unable to grow. The assay was done in polypropylene 96-well plates (Greiner, Frickenhausen, Germany) to avoid peptide binding to plate wells. Peptides were dissolved in water containing 0.4% w/v bovine serum albumin (BSA) and 0.02% v/v glacial acetic acid to prevent self-aggregation, following the reference protocol by Wiegand et al.,[42] based on the classical microtiter broth dilution recommended by the […]. Initial bacteria inoculum was adjusted to 5 × 10^5 CFU/mL in Mueller-Hinton (MH) medium. Incubations were kept at 37 °C for 24 h. Results are the average of three independent studies. MIC assays in the presence of serum were performed by incubating the peptide with human serum at a 1:1 ratio. Then, 10^6 cfu/mL of Pseudomonas sp. were incubated with serial dilutions of the peptides for 4 h. To determine the MBC, 50 μL from all wells were seeded into Petri plates and incubated for 24 h. The MBC concentration was attributed to the lowest concentration without detectable bacterial growth for each peptide.

Acinetobacter baumannii = type: cell-based; details: 24 h
Protocol: as §2

Escherichia coli = type: cell-based; details: 24 h
Protocol: as §2

Salmonella enterica = type: cell-based; details: 24 h
Protocol: as §2

Pseudomonas sp. [3] = experiment: Minimum bactericidal concentration (MBC); type: cell-based; details: 50 μL from MIC wells seeded into Petri plates, 24 h; lowest concentration without detectable growth
Protocol: as §2

Shigella flexneri = details: 50 μL from MIC wells seeded into Petri plates, 24 h; lowest concentration without detectable growth
Protocol: The antibiotic activity was defined by the minimum peptide concentration where the microorganism is unable to grow. The assay was done in polypropylene 96-well plates (Greiner, Frickenhausen, Germany) to avoid peptide binding to plate wells. Peptides were dissolved in water containing 0.4% w/v bovine serum albumin (BSA) and 0.02% v/v glacial acetic acid to prevent self-aggregation, following the reference protocol by Wiegand et al.,[42] based on the classical microtiter broth dilution recommended by the National Committee of Laboratory Safety and Standards (NCLSS). Initial bacteria inoculum was adjusted to 5 × 10^5 CFU/mL in Mueller-Hinton (MH) medium. Incubations were kept at 37 °C for 24 h. Results are the average of three independent studies. […] To determine the MBC, 50 μL from all wells were seeded into Petri plates and incubated for 24 h. The MBC concentration was attributed to the lowest concentration without detectable bacterial growth for each peptide.

E. coli [4] = type: cell-based, Escherichia coli; details: 24 h
Protocol: as §1, §2

horse red blood cells = experiment: Hemolytic activity; type: cell-based
Protocol: The peptide toxicity was determined detecting the disruption of horse red blood cells, following a previous assay report.[35] 10-fold diluted cells in PBS were centrifuged three times at 800g to eliminate the hemoglobin from disrupted cells. After the last resuspension, erythrocytes were incubated with the peptides for 4 h at 37 °C. The detection was done measuring the supernatant absorbance in a VICTOR3 multilabel plate reader (Perkin Elmer, Waltham, Massachusetts) at 540 nm in a microplate reader. Percentage of hemolysis was calculated through a pattern done with dilutions of total cell lysis done with a 1% Triton X-100 buffer. Results are the average of three independent studies.

[5] = Cytotoxicity in mammalian cells (MTT assay); type: cell-based; details: MRC-5 cytotoxicity (IC50)
Protocol: MRC-5 cells were grown in Eagle’s minimum essential medium (MEMα), supplemented with 10% fetal bovine serum (FBS). 96-well plates were seeded with 3 × 10^4 cells/well and cultured overnight in order to get cells adhered into the plate and then incubated with two-fold peptide serial dilutions. After 4 h of incubation, the medium containing the peptides was replaced by MEMα supplemented with FBS and 3-(4,5-dimethylthiazol-2-yl)-2,5-diphenyltetrazolium bromide (MTT) at 0.4 mg/mL and incubated for 150 min. Detection of formazan crystals in the living cells was done by cell disruption by addition of 200 μL of dimethyl sulfoxide (DMSO) followed by absorbance measuring at 600 nm in a Tecan Infinite F Nano+ microplate reader (Tecan, Germany). Results are the average of three independent studies.

Pseudomonas sp. [6] = experiment: MIC of peptides incubated with human serum; type: cell-based; details: peptide incubated with human serum 1:1; 10^6 cfu/mL Pseudomonas sp., 4 h
Protocol: as §2

[7] = 50 μL from MIC wells seeded into Petri plates, lowest concentration without detectable growth

cleaved bond (50% (v/v) Human Serum) | Compound | MIC Pseudomonas sp. (Pseudomonas sp. [2]) [µM] | MBC Pseudomonas sp. (Pseudomonas sp. [3]) [µM] | MBC Shigella flexneri (Shigella flexneri) [µM] | MIC E. coli (E. coli [4]) [µM] | MIC A. baumannii (A. baumannii) [µM] | MIC S. enterica (S. enterica) [µM] | MIC S. flexneri (S. flexneri) [µM] | hemolysis % (250 μM peptide) (horse red blood cells; red cells of horse, 4 h, 250) [%] | IC50 [5] [µM] | MBC Acinetobacter baumannii (Acinetobacter baumannii) [µM] | MBC Escherichia coli (Escherichia coli) [µM] | MBC Salmonella enterica (Salmonella enterica) [µM] | MIC in Pseudomonas sp., peptides incubated with human serum (Pseudomonas sp. [6]) [µM] | also measured
Pro2-Phe3 | OPFTOAQWFAIQHISPOTIAMOAINNYOWO | – | – | – | – | – | – | – | – | – | – | – | – | – | fragment found (50% (v/v) Human Serum): OPFTOAQWFAIQHISPO-------------; also recorded: -----------------TIAMOAINNYOWO; also recorded: OPFTOAQWFAIQHIS---------------; also recorded: ------QWFAIQHISPOTIAMOAINNY---
Pro2-Phe3 | RPFTRAQWFAIQHISPRTIAMRAINNYRWR | – | – | – | – | – | – | – | – | – | – | – | – | – | –
– | O=C(O)c1cn(C2CC2)c2cc(N3CCNCC3)c(F)cc2c1=O [ciprofloxacin] | – | – | – | – | – | – | – | – | – | – | – | – | – | MIC (E. coli [1]; after four cycles of incubation with ciprofloxacin (1 μM; 1 μg/mL elsewhere in the source), 1 h per cycle, 10^7 cfu/mL, read-out: MIC against E. coli after four cycles of incubation): 5 µM (≈ 1.66 µg/mL); MIC (E. coli [1]; start of recurrent incubation, read-out: MIC against E. coli before resistance cycles): 1.5 µM (≈ 0.497 µg/mL)
– | CC[C@H](C)[C@H](NC(=O)[C@H](CCCCN)NC(=O)[C@H](CCC(=O)O)NC(=O)[C@H](CCCCN)NC(=O)[C@H](CO)NC(=O)[C@H](CCCCN)NC(=O)[C@H](CCCNC(=N)N)NC(=O)[C@H](Cc1ccccc1)NC(=O)[C@H](Cc1ccccc1)NC(=O)[C@H](CC(=O)O)NC(=O)CNC(=O)[C@H](CC(C)C)NC(=O)[C@@H](N)CC(C)C)C(=O)NCC(=O)N[C@@H](CCCCN)C(=O)N[C@@H](CCC(=O)O)C(=O)N[C@@H](Cc1ccccc1)C(=O)N[C@@H](CCCCN)C(=O)N[C@@H](CCCNC(=N)N)C(=O)N[C@H](C(=O)N[C@H](C(=O)N[C@@H](CCC(N)=O)C(=O)N[C@@H](CCCNC(=N)N)C(=O)N[C@H](C(=O)N[C@@H](CCCCN)C(=O)N[C@@H](CC(=O)O)C(=O)N[C@@H](Cc1ccccc1)C(=O)N[C@@H](CC(C)C)C(=O)N[C@@H](CCCNC(=N)N)C(=O)N[C@@H](CC(N)=O)C(=O)N[C@@H](CC(C)C)C(=O)N[C@H](C(=O)N1CCC[C@H]1C(=O)N[C@@H](CCCNC(=N)N)C(=O)N[C@H](C(=O)N[C@@H](CCC(=O)O)C(=O)N[C@@H](CO)C(=O)O)[C@@H](C)O)C(C)C)[C@@H](C)CC)C(C)C)[C@@H](C)CC [LL-37, reference compound] | 1.56 (≈ 7.01 µg/mL) | 1.56 (≈ 7.01 µg/mL) | 12.5 (≈ 56.2 µg/mL) | – | – | – | – | – | – | – | – | – | – | MIC A. baumannii (A. baumannii; A. baumannii ATCC 15308, Mueller-Hinton medium, 5 × 10^5 CFU/mL, 37 °C, average of three independent studies): 6.25 µM (≈ 28.1 µg/mL); MIC S. enterica (S. enterica; S. enterica ATCC 14028, Mueller-Hinton medium, 5 × 10^5 CFU/mL, 37 °C, average of three independent studies): 12.5 µM (≈ 56.2 µg/mL); MIC S. flexneri (S. flexneri; S. flexneri ATCC 29903, Mueller-Hinton medium, 5 × 10^5 CFU/mL, 37 °C, average of three independent studies): 12.5 µM (≈ 56.2 µg/mL); MBC Acinetobacter baumannii (Acinetobacter baumannii; [7]): 6.25 µM (≈ 28.1 µg/mL); MBC Escherichia coli (Escherichia coli; [7]): 1.56 µM (≈ 7.01 µg/mL); MBC Salmonella enterica (Salmonella enterica; [7]): 12.5 µM (≈ 56.2 µg/mL); increase in MIC (induced resistance) in E. coli (E. coli [1]; 7 rounds of incubation with 1 μM peptide, below the MIC): did not detect a significant increase in MIC
– | CC[C@H](C)[C@H](NC(=O)[C@H](C)NC(=O)[C@H](CCCCNC(=N)N)NC(=O)[C@H](CCSC)NC(=O)[C@H](C)NC(=O)[C@@H](NC(=O)[C@@H](NC(=O)[C@H](CCCCNC(=N)N)NC(=O)[C@@H]1CCCN1C(=O)[C@H](CO)NC(=O)[C@@H](NC(=O)[C@H](Cc1c[nH]cn1)NC(=O)[C@H](CCC(N)=O)NC(=O)[C@@H](NC(=O)[C@H](C)NC(=O)[C@H](Cc1ccccc1)NC(=O)[C@H](Cc1c[nH]c2ccccc12)NC(=O)[C@H](CCC(N)=O)NC(=O)[C@H](C)NC(=O)[C@H](CCCCNC(=N)N)NC(=O)[C@@H](NC(=O)[C@H](Cc1ccccc1)NC(=O)[C@@H]1CCCN1C(=O)[C@@H](N)CCCCNC(=N)N)[C@@H](C)O)[C@@H](C)CC)[C@@H](C)CC)[C@@H](C)O)[C@@H](C)CC)C(=O)N[C@@H](CC(N)=O)C(=O)N[C@@H](CC(N)=O)C(=O)N[C@@H](Cc1ccc(O)cc1)C(=O)N[C@@H](CCCCNC(=N)N)C(=O)N[C@@H](Cc1c[nH]c2ccccc12)C(=O)N[C@@H](CCCCNC(=N)N)C(N)=O [compound 4] (H-[hArg]PFT[hArg]AQWFAIQHISP[hArg]TIAM[hArg]AINNY[hArg]W[hArg]-NH2) | 3.13 (≈ 12 µg/mL) | 3.13 (≈ 12 µg/mL) | 3.13 (≈ 12 µg/mL) | 6.25 (≈ 24 µg/mL) | 12.5 (≈ 48 µg/mL) | 25 (≈ 96 µg/mL) | 3.13 (≈ 12 µg/mL) | 43 ± 1 | 7.6 ± 0.7 | 12.5 (≈ 48 µg/mL) | 6.25 (≈ 24 µg/mL) | 25 (≈ 96 µg/mL) | 6.25 | –
– | CC[C@H](C)[C@H](NC(=O)[C@H](C)NC(=O)[C@H](CCN)NC(=O)[C@H](CCSC)NC(=O)[C@H](C)NC(=O)[C@@H](NC(=O)[C@@H](NC(=O)[C@H](CCN)NC(=O)[C@@H]1CCCN1C(=O)[C@H](CO)NC(=O)[C@@H](NC(=O)[C@H](Cc1c[nH]cn1)NC(=O)[C@H](CCC(N)=O)NC(=O)[C@@H](NC(=O)[C@H](C)NC(=O)[C@H](Cc1ccccc1)NC(=O)[C@H](Cc1c[nH]c2ccccc12)NC(=O)[C@H](CCC(N)=O)NC(=O)[C@H](C)NC(=O)[C@H](CCN)NC(=O)[C@@H](NC(=O)[C@H](Cc1ccccc1)NC(=O)[C@@H]1CCCN1C(=O)[C@@H](N)CCN)[C@@H](C)O)[C@@H](C)CC)[C@@H](C)CC)[C@@H](C)O)[C@@H](C)CC)C(=O)N[C@@H](CC(N)=O)C(=O)N[C@@H](CC(N)=O)C(=O)N[C@@H](Cc1ccc(O)cc1)C(=O)N[C@@H](CCN)C(=O)N[C@@H](Cc1c[nH]c2ccccc12)C(=O)N[C@@H](CCN)C(N)=O [compound 3] (H-[Dab]PFT[Dab]AQWFAIQHISP[Dab]TIAM[Dab]AINNY[Dab]W[Dab]-NH2) | 3.13 (≈ 10.7 µg/mL) | 3.13 (≈ 10.7 µg/mL) | 6.25 (≈ 21.4 µg/mL) | 6.25 (≈ 21.4 µg/mL) | 50 (≈ 171 µg/mL) | 50 (≈ 171 µg/mL) | 6.25 (≈ 21.4 µg/mL) | 14 ± 6 | 182 ± 9 | 50 (≈ 171 µg/mL) | 6.25 (≈ 21.4 µg/mL) | 50 (≈ 171 µg/mL) | 12.5 | hemolysis % (250 μM peptide) (horse red blood cells): 10%
